Data: PubChem BioAssay (NCI)
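The compound was tested at five concentrations on cells cultured in 96-well plates, with a 48-hour exposure period. TGI denotes the concentration required for complete inhibition of growth.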

Columns and labels:
Test in all cases: inhibition of tumour cell growth, NCI panel, 48 h
[1] = system: CAKI-1 renal
[2] = system: DU-145 prostate
[3] = system: HT29 colon
[4] = system: M14 melanoma
[5] = system: OVCAR-3 ovarian
[6] = system: PC-3 prostate
[7] = system: SF-539 CNS
[8] = system: SK-MEL-28 melanoma
[9] = system: SK-MEL-5 melanoma
[10] = system: SNB-75 CNS
[11] = system: SW-620 colon

Compound | TGI [1] [µM] | TGI [2] [µM] | TGI [3] [µM] | TGI [4] [µM] | TGI [5] [µM] | TGI [6] [µM] | TGI [7] [µM] | TGI [8] [µM] | TGI [9] [µM] | TGI [10] [µM] | TGI [11] [µM]
O=C1CC(Br)c2c(Cl)sc(Cl)c21 (stereo not drawn) | 9.79 | 31.3 | 41.7 | 26.5 | 6.32 | 23.4 | > 100 | 30.3 | 41.9 | 30.5 | 5.43
O=[N+]([O-])CC(SCc1ccccc1)c1ccc2c(c1)OCO2 (stereo not drawn) | 28.6 | 30 | 7.64 | 13.1 | 18.3 | 33.1 | 10.9 | 17 | 25 | 30.6 | 15.4
NC1CC2C3CCC2C1C3=O (stereo not drawn) | > 100 | > 100 | > 100 | > 100 | > 100 | > 100 | > 100 | > 100 | > 100 | > 100 | > 100
Cc1ccc(C(=O)CC(Cl)=C(Cl)Cl)cc1 | > 100 | > 100 | > 100 | > 100 | > 100 | > 100 | > 100 | > 100 | > 100 | > 100 | > 100
COc1ccc(CNc2nc(NCc3ccc(OC)cc3)nc(Nc3ccccc3)n2)cc1 | 10.4 | > 100 | 4.1 | > 100 | 6.94 | > 100 | > 100 | > 100 | > 100 | > 100 | > 100
Cc1cccc2sc(NC(=O)c3cc([N+](=O)[O-])ccc3Cl)nc12 | > 44.8 | 17.4 | 4.48 | 5.32 | 17.4 | 38.4 | 6.25 | > 94.2 | 5.32 | > 21.1 | 6.35
Cc1cc(C)c2c(n1)S(=O)(=O)N(CCCN1CCN(c3cccc(C(F)(F)F)c3)CC1)/C(=C(\O)c1ccccc1)C2=O | 11.9 | > 100 | 43.9 | > 100 | 18.1 | > 100 | 98.7 | 57.5 | 14.1 | 19.2 | 29.3
COc1cc(/C=C2\N=C(c3ccccc3)N(C3Nc4cc5c(cc4S3)NC(N3C(=O)/C(=C/c4cc(OC)c(OC)c(OC)c4)N=C3c3ccccc3)S5)C2=O)cc(OC)c1OC (stereo not drawn) | > 100 | > 100 | > 100 | > 100 | > 100 | > 100 | > 100 | > 100 | > 100 | > 100 | > 100
